In paper PMC11676896, “Protective Action of Cannabidiol on Tiamulin Toxicity in Humans—In Vitro Study” (International Journal of Molecular Sciences, 2024):
Where a name gives a salt, the structure may show the parent alone.

Experiments:
SH-SY5Y cells [1] = assay: Hoechst 33342/propidium iodide double staining (apoptosis and necrosis); assay type: cell-based; conditions: 72 h of incubation
Excerpt: (§1) After assessing the cytotoxicity of tiamulin and its mixtures with CBD, cell death was examined using the Hoechst 33342/propidium iodide (PI) double staining test (Figure 6). The intensity of the blue color and the presence of fragmented, blue-stained cellular components indicated apoptotic cell death after Hoechst 33342 staining. Necrotic cell death was identified by red fluorescence after PI staining. […] Mixtures of tiamulin and CBD caused a decrease in both apoptotic and necrotic cell death.
(§2) The analysis of type and level of cellular death in the control and tested cultures was evaluated using fluorochrome staining, Hoechst 33342 (Sigma, St. Louis, MO, USA) and propidium iodide (Sigma, St. Louis, MO, USA) mixed for apoptosis and necrosis evaluation. Using an Axiaert 200 M fluorescence micrscope (Zeiss, Obercochem, Germany), dead cells were analyzed morphologically. Cells with pink fluorescent nuclei were considered necrotic, whereas those with blue fluorescent nuclei (fragmented and/or with condensed chromatin) were considered apoptotic.

HEK-293 cells [2] = assay: as above; assay type: cell-based; conditions: HEK-293, 72 h of incubation
Excerpt: as §1, §2

HepG2 cells [3] = assay: as above; assay type: cell-based; conditions: HepG2, 72 h of incubation
Excerpt: as §1, §2

SH-SY5Y cells [4] = assay: DCFH-DA assay of reactive oxygen species (ROS); assay type: cell-based, human; conditions: lowest concentration of tiamulin, 72 h
Method: (§3) The human neuroblastoma (SH-SY5H), hepatoma (HepG2) and kidney cells (HEK 293) cells were purchased from the American Type Culture Collection: ATCCCRL-2266,ATCC HB-8065 and ATCC CRL-1573, respectively. These cells were cultured in Minimum Essential Medium Eagle (MEME) (ATCC). The media were supplemented with 10% FBS, 1% L-glutamine (and 1% antibiotic solution (P4333 Sigma). The cells were maintained in 75 cm^2 cell culture flasks (NUNC) in a humidified incubator at 37 °C in an atmosphere of 5% CO2. The medium was refreshed every two or three days, and the cells were subcultured by 0.25% trypsin–0.02% EDTA after reaching 70–80% confluence. Single cell suspensions were prepared and adjusted to a density of 2 × 10^5 cell/mL^−1 (SH-SY5H), 1 × 10^5 cell/mL^−1 (HepG2) and 1 × 10^5 cell/mL^−1 (HEK-293). The cell suspension was transferred to 96-well plates (100 µL/well) or Lab-Tek chamber slides (8 wells) (Nunc) for staining and incubated for 24 h before the exposure to the studied compounds. Stock solutions of tiamulin fumarate and cannabidiol were prepared in DMSO and diluted with culture medium to obtain a concentration range from 1.56 to 200 µg/mL and 1.56 or […], respectively. The selection of tiamulin concentrations was based on data from the literature and pilot studies. The final concentration of DMSO was 0.1% in the medium. The same final concentrations of the solvent and the 1% Trition-X 100 solution were used as the negative and positive controls, respectively. A total of 500 µM hydrogen peroxide (H2O2) in was used as the positive control in the DCFH assay. […] As a negative control, cultured cells were grown in the absence of studied compounds. […] Cytotoxicity was assessed after 72 h of exposure of the cells to the compounds. […]
(§4) Intracellular levels of ROS were evaluated using the redox-sensitive fluorescent dye DCFH-DA [62]. […] After 72 h of incubation, the fluorescence of 2′,7′-dichlorofluorescein (DCF) was measured. Fluorescence was determined at 485/530 nm using a fluorescence microplate reader (BioTek® Instruments Inc., Winooski, VT, USA).

HEK-293 cells [5] = assay: DCFH-DA assay of reactive oxygen species (ROS); assay type: cell-based, human; conditions: HEK-293, lowest concentration of tiamulin, 72 h
Method: as §3, §4

HepG2 cells [6] = assay: DCFH-DA assay of reactive oxygen species (ROS); assay type: cell-based, human; conditions: HepG2, lowest concentration of tiamulin, 72 h
Method: as §3, §4

HEK 293 cells = assay: MTT assay (mitochondrial activity); assay type: cell-based, human
Method: (§5) The cytotoxic potential of the veterinary drug and its mixtures with cannabidiol at two non-toxic concentrations: 1.56 and 3.15 µg/mL, on the human SH-SY5Y, HepG2 and HEK 293 cell lines was assessed by decreased viability of the cells within five biochemical endpoints: mitochondrial activity and lysosomal activity (MTT assays, reducing the tetrazolium dye MTT 3-(4,5-dimethylthiazol-2-yl)-2,5-diphenyltetrazolium bromide and neutral red uptake (NRU) assays), total protein content (TPC assay), cellular membrane integrity (leakage lactate dehydrogenase (LDH) assay) and DNA synthesis (the bromodeoxyuridine/5-bromo-2′-deoxyuridine incorporation into the DNA cells (BrdU) assay) after 72 h exposition. Data obtained from the measurement of the optical density in these assays were transformed to percentages in relation to the negative control group (0.1% DMSO in medium), considered to be 100% for the MTT, NRU, TPC and BrdU assays and 0% for the LDH assay. 1% Trition-X 100 solution in medium was used as the positive controls, (Figure 3).
(§6) The human neuroblastoma (SH-SY5H), hepatoma (HepG2) and kidney cells (HEK 293) cells were purchased from the American Type Culture Collection: ATCCCRL-2266,ATCC HB-8065 and ATCC CRL-1573, respectively. These cells were cultured in Minimum Essential Medium Eagle (MEME) (ATCC). The media were supplemented with 10% FBS, 1% L-glutamine (and 1% antibiotic solution (P4333 Sigma). The cells were maintained in 75 cm^2 cell culture flasks (NUNC) in a humidified incubator at 37 °C in an atmosphere of 5% CO2. The medium was refreshed every two or three days, and the cells were subcultured by 0.25% trypsin–0.02% EDTA after reaching 70–80% confluence. Single cell suspensions were prepared and adjusted to a density of 2 × 10^5 cell/mL^−1 (SH-SY5H), 1 × 10^5 cell/mL^−1 (HepG2) and 1 × 10^5 cell/mL^−1 (HEK-293). The cell suspension was transferred to 96-well plates (100 µL/well) or Lab-Tek chamber slides (8 wells) (Nunc) for staining and incubated for 24 h before the exposure to the studied compounds. Stock solutions of tiamulin fumarate and cannabidiol were prepared in DMSO and diluted with culture medium to obtain a concentration range from 1.56 to 200 µg/mL and 1.56 or 3.156 µg/mL, respectively. The selection of tiamulin concentrations was based on data from the literature and pilot studies. The final concentration of DMSO was 0.1% in the medium. The same final concentrations of the solvent and the 1% Trition-X 100 solution were used as the negative and positive controls, respectively. A total of 500 µM hydrogen peroxide (H2O2) in was used as the positive control in the DCFH assay. […] As a negative control, cultured cells were grown in the absence of studied compounds. Each concentration was tested in six replicates in three independent experiments. Cytotoxicity was assessed after 72 h of exposure of the cells to the compounds. The medium was not changed during the incubation time.
(§7) The metabolic activity of living cells was assessed by the measurement of the activity of dehydrogenases. After the incubation of the cells with the studied compounds, 10 μL of the MTT solution (5 mg/mL in PBS) was added to each well of 96-well plates and incubated. After 3 h, the MTT solution was removed, and the intracellular formazan crystals were dissolved in 100 µL DMSO. The plate was shaken for 15 min at room temperature and transferred to a Synergy 2 Multi-Mode Microplate Reader (BioTek® Instruments Inc., Winooski, VT, USA) to measure the absorbance at 570 nm, using a blank as a reference. Cytotoxicity was expressed as a percentage of the negative control (0.1% DMSO in medium).
(§8) This study was performed in three independent experiments. The obtained results are presented as mean values ± SD (standard deviation). […]

SH-SY5Y cells [7] = assay: MTT assay (mitochondrial activity); assay type: cell-based, human; conditions: 72 h
Method: as §5, §6, §7, §8

HepG2 cells [8] = assay: MTT assay (mitochondrial activity); assay type: cell-based, human; conditions: HepG2, 72 h
Method: as §5, §6, §7, §8

CYP3A4 = test system: CYP3A4; set-up: method as in PMID 15013817; conditions: cited from earlier work
[9] = Homo sapiens, read-out: inhibited concentration (IC50), MTT

Compound: C=C[C@]1(C)C[C@@H](OC(=O)CSCCN(CC)CC)[C@]2(C)[C@H](C)CC[C@]3(CCC(=O)[C@H]32)[C@@H](C)[C@@H]1O [T, tiamulin fumarate]
- apoptotic and necrotic cell death (SH-SY5Y cells [1]): slight increase in apoptotic and necrotic cells
- apoptotic and necrotic cell death (HEK-293 cells [2]): significant apoptotic and necrotic profiles
- apoptotic and necrotic cell death (HepG2 cells [3]): significant apoptotic and necrotic profiles
- increase in fluorescence intensity of the probes (ROS) (SH-SY5Y cells [4]): 66%
- increase in fluorescence intensity of the probes (ROS) (HEK-293 cells [5]): 91%
- increase in fluorescence intensity of the probes (ROS) (HepG2 cells [6]): 44%
- tiamulin concentration that inhibited mitochondrial activity (HEK 293 cells; HEK-293, 72 h): 25 µg/mL
- IC50 (HEK 293 cells; Homo sapiens, HEK293, 72 h, read-out: inhibited concentration (IC50), MTT): 27.5 ± 0.8 µg/mL
- tiamulin concentration that inhibited mitochondrial activity (SH-SY5Y cells [7]; significant (p ≤ 0.05) vs negative control): 6.25 µg/mL
- IC50 (SH-SY5Y cells [7]; [9]): 30.2 ± 1.8 µg/mL
- tiamulin concentration that inhibited mitochondrial activity (HepG2 cells [8]): 12.5 µg/mL
- IC50 (HepG2 cells [8]; [9]): 27.4 ± 1.3 µg/mL
- effect on CYP3A4 (CYP3A4): strongly blocks CYP3A4
